Measured values as given in paper PMC7617104 (Biochemical Journal, 2024).
Values joined by “and” are separate entries in the source; they are usually repeats but may differ in a detail not shown here. Equal values may be shown once. Read-outs that look alike come from different tables or passages of the source. One block for each compound: values may come before it.

Tests used:
PI3Kα^WT [1] = biological target: T1, PI3Kα^WT (Homo sapiens, UniProt P42336); test: BLI membrane binding assay (immobilised liposomes); conditions: for effect on P2pY-activated PI3Kα^WT membrane interaction (BLI wavelength shift): 1 µM PI3Kα^WT, 300 s, GSK2126458 4 µM, PIK-75 20 µM, 6 4 µM, 7 10 µM, GDC0032 10 µM, AS252424 10 µM, AMP-PNP 2 mM with 5 mM Mg2+; for Bmax (binding capacity) of PI3Kα^WT membrane interaction in presence of inhibitor: pY activated, inhibitor:protein 4:1, Mean ± SEM
T1 construct: using full length PI3Kα^WT and PI3Kα^H1047R up to 1 μM; made in house; host or cells: Sf9 insect cells (baculovirus)
Protocol: BLI is a label-free dip-and-read method that uses wavelength changes in reflected incidental white light to report on changes in thickness of the lipid vesicles immobilised on a biosensor from protein binding.
(§1) BLI experiments were carried out with a BLItz® System (ForteBIO) using aminopropylsilane (APS) biosensors. The APS biosensors (ForteBIO #18-5045) were hydrated for 15–20 min in either Tris or HEPES liposome buffer. The program option used was Advanced Kinetics. Liposome membrane preparation was performed using a 0.5 mg/ml liposome solution of PIP2: PS: PE: PC: C: S (Avanti polar lipids) in the mass percentages of 5: 20: 45: 15: 10: 5. Liposomes without PIP2 were prepared as PS: PE: PC: C: S in the percentage of […]. Liposomes without PS were prepared as PIP2: PE: PC: C: S in the percentage of 5: 65: 15: 10: 5. […] P2pY and inhibitor, or DMSO only were also added to achieve a final protein concentration of 200 μg/ml, a pY concentration of 10 μM, and total DMSO content of 3%. The mixture was incubated at room temperature for 10 min prior to the protein association experiments. The membrane coated biosensors were first dipped in Buffer D containing 3% DMSO for 30 s to set an initial baseline, and transferred to the protein in the presence or absence of inhibitor. Protein binding was followed for 300 s, and then the biosensors were dipped in Buffer D with 3% DMSO again for 300 s for protein dissociation. […] PI3Kα^M1043I used 0.125, 0.25, 0.5, 1 and 1.57 µM. The results of liposome loading and protein association were then analysed and graphed using GraphPad Prism 6.
Target sequence in this assay (P42336 whole entry): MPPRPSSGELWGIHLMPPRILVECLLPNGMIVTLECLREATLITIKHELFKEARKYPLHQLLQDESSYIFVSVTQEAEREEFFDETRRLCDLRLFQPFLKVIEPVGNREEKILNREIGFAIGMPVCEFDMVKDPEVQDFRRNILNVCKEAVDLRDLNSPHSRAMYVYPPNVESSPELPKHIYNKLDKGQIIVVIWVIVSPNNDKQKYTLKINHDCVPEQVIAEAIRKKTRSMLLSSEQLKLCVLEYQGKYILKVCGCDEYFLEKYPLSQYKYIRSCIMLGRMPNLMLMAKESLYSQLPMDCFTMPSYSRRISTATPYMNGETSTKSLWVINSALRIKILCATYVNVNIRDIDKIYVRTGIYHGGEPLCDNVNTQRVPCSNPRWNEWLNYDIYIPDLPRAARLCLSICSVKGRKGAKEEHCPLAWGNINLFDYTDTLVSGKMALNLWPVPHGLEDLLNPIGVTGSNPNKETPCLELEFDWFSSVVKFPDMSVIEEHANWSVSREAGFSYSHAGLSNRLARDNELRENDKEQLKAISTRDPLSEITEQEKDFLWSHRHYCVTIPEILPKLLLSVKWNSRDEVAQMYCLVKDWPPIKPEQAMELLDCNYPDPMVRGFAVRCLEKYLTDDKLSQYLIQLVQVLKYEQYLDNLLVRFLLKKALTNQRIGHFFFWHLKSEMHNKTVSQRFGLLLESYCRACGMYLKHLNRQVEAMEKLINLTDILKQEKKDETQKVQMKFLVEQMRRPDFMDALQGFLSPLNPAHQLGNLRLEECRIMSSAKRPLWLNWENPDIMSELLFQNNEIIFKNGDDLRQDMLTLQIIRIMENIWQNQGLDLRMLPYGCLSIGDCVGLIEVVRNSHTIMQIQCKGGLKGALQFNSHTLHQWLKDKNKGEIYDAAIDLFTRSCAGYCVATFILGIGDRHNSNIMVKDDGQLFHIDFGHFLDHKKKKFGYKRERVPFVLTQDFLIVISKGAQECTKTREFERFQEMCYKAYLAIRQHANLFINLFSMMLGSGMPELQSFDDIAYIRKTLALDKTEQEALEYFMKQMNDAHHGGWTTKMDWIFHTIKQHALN
Target sequence in this assay (P27986 2-724 partner): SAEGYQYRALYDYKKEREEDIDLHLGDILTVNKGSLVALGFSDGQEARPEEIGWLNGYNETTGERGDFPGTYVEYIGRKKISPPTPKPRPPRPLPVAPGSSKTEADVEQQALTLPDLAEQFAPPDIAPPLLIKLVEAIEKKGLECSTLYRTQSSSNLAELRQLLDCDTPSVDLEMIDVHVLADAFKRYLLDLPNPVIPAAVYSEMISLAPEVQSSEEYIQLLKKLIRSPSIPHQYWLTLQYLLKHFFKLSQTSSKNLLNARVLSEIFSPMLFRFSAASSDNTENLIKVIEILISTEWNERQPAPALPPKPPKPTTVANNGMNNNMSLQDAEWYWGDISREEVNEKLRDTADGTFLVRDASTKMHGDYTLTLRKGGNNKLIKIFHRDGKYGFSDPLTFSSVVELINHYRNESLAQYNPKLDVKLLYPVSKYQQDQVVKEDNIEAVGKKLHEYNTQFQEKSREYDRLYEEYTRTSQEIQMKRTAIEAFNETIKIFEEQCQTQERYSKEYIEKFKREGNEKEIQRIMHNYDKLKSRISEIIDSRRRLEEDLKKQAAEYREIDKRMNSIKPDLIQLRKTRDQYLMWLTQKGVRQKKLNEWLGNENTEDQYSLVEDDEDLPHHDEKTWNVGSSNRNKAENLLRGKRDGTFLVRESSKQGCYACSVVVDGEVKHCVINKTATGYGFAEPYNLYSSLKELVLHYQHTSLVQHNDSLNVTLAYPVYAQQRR

p110γ [2] = biological target: T2, p110γ (Homo sapiens, UniProt P48736); test: PI3K HTRF lipid kinase IC50 determination; assay type: biochemical; conditions: Table S1, this study; a = N=2 individual data shown, b = N=1; read-out: IC50 p110γ WT
T2 construct: made in house; host or cells: Sf9 insect cells (baculovirus)
Protocol: (§2) IC50 values were determined using the PI3K homogenous time-resolved fluorescence assay (Merck Millipore, #33-016) following the manufacturer's instructions as previously described. […] Data was graphed and analysed with Graphpad Prism 6, nonlinear regression with log(inhibitor) vs. response and constraints set at 0% and 100%.
(§3) (1 picture or pasted object on this page, not shown here)

PI3Kβ^WT (p110β/p85α) = biological target: T3, PI3Kβ^WT (p110β/p85α) (Homo sapiens, UniProt P42338); test: PI3K HTRF lipid kinase IC50 determination; assay type: biochemical
T3 construct: made in house; host or cells: Sf9 insect cells (baculovirus)
Protocol: as §2, §3
(§4) Enzymes were used at PI3KαWT 40 ng/ml, PI3KβWT as either 400 ng/ml or 300 ng/ml,
(§5) and PI3K δWT was 65 ng/ml. Plates were read on a PHERAStar HTS microplate reader

PI3Kα M1043I mutant = PI3Kα M1043I mutant (Homo sapiens, UniProt P42336, M1043I); test: BLI membrane binding assay, concentration response; conditions: P2pY activated; protein to GSK2126458 ratio 1:4
Protocol: as §1, with “6. […]” for “6.”
(§6) membrane binding parameters. (A) Concentration response curves for PI3Kα oncogenic mutant proteins. Data is shown as the Mean ± SEM (number of biosensors for each data point is n≥3). A one site-specific binding model was used to fit the data. The […]
as §3

PI3Kα G118D mutant = PI3Kα G118D mutant (Homo sapiens, UniProt P42336, G118D); test: BLI membrane binding assay, concentration response; conditions: P2pY activated; protein to GSK2126458 ratio 1:4
Protocol: as §1, with “6. […]” for “6.”
as §6, §3

PI3Kα N345K mutant = PI3Kα N345K mutant (Homo sapiens, UniProt P42336, N345K); test: BLI membrane binding assay, concentration response; conditions: P2pY activated; protein to GSK2126458 ratio 1:4
Protocol: as §1, with “6. […]” for “6.”
as §6, §3

PI3Kα C420R mutant = PI3Kα C420R mutant (Homo sapiens, UniProt P42336, C420R); test: BLI membrane binding assay, concentration response; conditions: P2pY activated; protein to GSK2126458 ratio 1:4
Protocol: as §1, with “6. […]” for “6.”
as §6, §3

PI3Kα G106V mutant = PI3Kα G106V mutant (Homo sapiens, UniProt P42336, G106V); test: BLI membrane binding assay, concentration response; conditions: P2pY activated; protein to GSK2126458 ratio 1:4
Protocol: as §1, with “6. […]” for “6.”
as §6, §3

PI3Kα G1049R mutant = PI3Kα G1049R mutant (Homo sapiens, UniProt P42336, G1049R); test: BLI membrane binding assay, concentration response; conditions: P2pY activated; protein to GSK2126458 ratio 1:4
Protocol: as §1, with “6. […]” for “6.”
as §6, §3

PI3Kα^WT [3] = biological target: T1, PI3Kα^WT; test: FRET membrane binding assay (dansyl-PS liposomes); conditions: P1pY-activated 0.5 μM PI3Kα^WT; inhibitor 31.25 nM to 2 μM
Target sequence in this assay (P42336 whole entry): as the sequence (P42336 whole entry) above
Target sequence in this assay (P27986 whole entry partner): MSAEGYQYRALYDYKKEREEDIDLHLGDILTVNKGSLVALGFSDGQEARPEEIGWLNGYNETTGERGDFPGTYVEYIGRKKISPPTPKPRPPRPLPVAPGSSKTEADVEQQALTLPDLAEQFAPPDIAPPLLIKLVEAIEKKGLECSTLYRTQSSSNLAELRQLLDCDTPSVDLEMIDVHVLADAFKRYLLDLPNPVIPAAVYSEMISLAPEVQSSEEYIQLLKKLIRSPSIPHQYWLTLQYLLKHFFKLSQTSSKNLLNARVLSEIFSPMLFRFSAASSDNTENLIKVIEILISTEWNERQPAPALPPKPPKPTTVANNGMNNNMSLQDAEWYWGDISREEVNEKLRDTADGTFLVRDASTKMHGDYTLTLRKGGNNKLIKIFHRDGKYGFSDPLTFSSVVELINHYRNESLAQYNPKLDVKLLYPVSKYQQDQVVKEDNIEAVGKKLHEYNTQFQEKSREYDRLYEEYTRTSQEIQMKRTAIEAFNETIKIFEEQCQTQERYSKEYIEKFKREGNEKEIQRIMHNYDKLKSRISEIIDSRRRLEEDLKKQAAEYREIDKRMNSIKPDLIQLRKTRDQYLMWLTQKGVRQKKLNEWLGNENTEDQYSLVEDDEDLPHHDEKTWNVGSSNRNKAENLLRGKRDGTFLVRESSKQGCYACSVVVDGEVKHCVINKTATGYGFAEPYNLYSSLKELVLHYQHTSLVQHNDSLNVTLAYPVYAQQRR
Protocol: The FRET-based assay directly monitors the interaction by measuring energy transfer from tryptophan residues in PI3Kα to dansyl-labelled phosphatidylserine (PS) lipids embedded within the synthetic membrane.
Liposomes were prepared with PIP2: phosphatidylserine (PS): phosphatidlyethanol (PE): phosphatidylcholine (PC): Cholesterol (C): Sphingomyelin (S): Dansyl PS (Avanti polar lipids) in the percentage of 5: 20: 35: 15: 10: 5: 10. Inhibitors were solubilised in 100% DMSO, and were diluted to 10% DMSO with Buffer C (30 mM HEPES pH 7.5, 50 mM NaCl), before being serially diluted to desired concentrations in 30 mM HEPES pH 7.5, 50 mM NaCl with 10% DMSO. […] Compounds were used at 5-fold the final concentration and 2 μl was added to 5 μl of enzyme in a 384-well plate, the plate was sealed and the mixture was allowed to equilibrate at room temperature for 10 min with shaking at 450 rpm. Liposomes were then added to the mixture to give a final liposome concentration of 50 μg/ml and a final reaction volume of 10 μl, and the plate was incubated at room temperature for 10 min with shaking at 450 rpm. […] The FRET signal was measured as I-I0 (intensity at 520 nm for protein and liposome solution — intensity at 520 nm for liposome only solution). […] The compound only I-I0 was then subtracted from the I-I0 of the protein-compound complex. […] Data were then graphed and analysed with GraphPad Prism 6.

PI3Kα^H1047R = biological target: T4, PI3Kα^H1047R (Homo sapiens, UniProt P42336, H1047R); test: BLI membrane binding assay (immobilised liposomes); conditions: pY activated, inhibitor:protein 4:1, Mean ± SEM
T4 construct: Full length PI3Kα^WT or PI3Kα^H1047R was diluted with Buffer D; made in house; host or cells: Sf9 insect cells (baculovirus)
Protocol: as §1

PI3Kβ^WT = biological target: T5, PI3Kβ^WT (Homo sapiens, UniProt P42338); test: BLI membrane binding assay (immobilised liposomes); conditions: 4 µM inhibitor, 1 µM enzyme, +pY, 300 s
T5 construct: made in house; host or cells: Sf9 insect cells (baculovirus)
Protocol: (§7) Figure 6. […] The data are shown as Mean ± SD; PI3Kα^WT +pY n = 7; PI3Kα^WT +pY + GSK n = 5; PI3Kα^WT −pY n = 4; PI3Kα^WT −pY + GSK n = 3. (B) Effect of GSK on the BLI wavelength shift (λ) on membrane binding by PI3Kα^WT, the PI3Kα^E545K oncogenic mutant, class IA PI3Kβ^WT and class IA PI3Kδ^WT enzymes. In all experiments inhibitors were tested at 4 µM with 1 µM of the different enzymes and membrane binding was followed by BLI for 300 s.
as §1

PI3Kδ^WT = biological target: T6, PI3Kδ^WT (Homo sapiens, UniProt O00329); test: BLI membrane binding assay (immobilised liposomes); conditions: 4 µM inhibitor, 1 µM enzyme, +pY, 300 s
T6 construct: made in house; host or cells: Sf9 insect cells (baculovirus)
Protocol: as §7, §1

PI3Kα^E545K = PI3Kα^E545K (Homo sapiens, UniProt P42336, E545K); test: BLI membrane binding assay (immobilised liposomes); conditions: 4 µM inhibitor, 1 µM enzyme, +pY, 300 s
Protocol: as §7, §1

p110γ [4] = biological target: T2, p110γ; design: method as in earlier work; conditions: Table S1, rows marked #; ref S1; read-out: IC50 p110γ WT; cited from earlier work
PI3Kα^WT (p110α/p85α) = biological target: T7, PI3Kα^WT (p110α/p85α) (Homo sapiens, UniProt P42336); test: PI3K homogenous time-resolved fluorescence (HTRF) lipid kinase IC50 determination; assay type: biochemical; conditions: HTRF assay using PIP2 as substrate; Mean ± SD, n=2; enzyme 40 ng/ml; read-out: IC50 PI3Kα (Table S3)
T7 construct: made in house; host or cells: Sf9 insect cells (baculovirus)
Protocol: as §2, §3, §4, §5

PI3Kδ^WT (p110δ/p85α) = biological target: T8, PI3Kδ^WT (p110δ/p85α) (Homo sapiens, UniProt O00329); test: PI3K HTRF lipid kinase IC50 determination; assay type: biochemical; conditions: HTRF assay using PIP2 as substrate; Mean ± SD, n=2; enzyme 65 ng/ml; read-out: IC50 PI3K (third column of Table S3, probably PI3Kδ)
T8 construct: made in house; host or cells: Sf9 insect cells (baculovirus)
Protocol: as §2, §3, §4, §5

T2 sequence (P48736 whole entry, species assumed): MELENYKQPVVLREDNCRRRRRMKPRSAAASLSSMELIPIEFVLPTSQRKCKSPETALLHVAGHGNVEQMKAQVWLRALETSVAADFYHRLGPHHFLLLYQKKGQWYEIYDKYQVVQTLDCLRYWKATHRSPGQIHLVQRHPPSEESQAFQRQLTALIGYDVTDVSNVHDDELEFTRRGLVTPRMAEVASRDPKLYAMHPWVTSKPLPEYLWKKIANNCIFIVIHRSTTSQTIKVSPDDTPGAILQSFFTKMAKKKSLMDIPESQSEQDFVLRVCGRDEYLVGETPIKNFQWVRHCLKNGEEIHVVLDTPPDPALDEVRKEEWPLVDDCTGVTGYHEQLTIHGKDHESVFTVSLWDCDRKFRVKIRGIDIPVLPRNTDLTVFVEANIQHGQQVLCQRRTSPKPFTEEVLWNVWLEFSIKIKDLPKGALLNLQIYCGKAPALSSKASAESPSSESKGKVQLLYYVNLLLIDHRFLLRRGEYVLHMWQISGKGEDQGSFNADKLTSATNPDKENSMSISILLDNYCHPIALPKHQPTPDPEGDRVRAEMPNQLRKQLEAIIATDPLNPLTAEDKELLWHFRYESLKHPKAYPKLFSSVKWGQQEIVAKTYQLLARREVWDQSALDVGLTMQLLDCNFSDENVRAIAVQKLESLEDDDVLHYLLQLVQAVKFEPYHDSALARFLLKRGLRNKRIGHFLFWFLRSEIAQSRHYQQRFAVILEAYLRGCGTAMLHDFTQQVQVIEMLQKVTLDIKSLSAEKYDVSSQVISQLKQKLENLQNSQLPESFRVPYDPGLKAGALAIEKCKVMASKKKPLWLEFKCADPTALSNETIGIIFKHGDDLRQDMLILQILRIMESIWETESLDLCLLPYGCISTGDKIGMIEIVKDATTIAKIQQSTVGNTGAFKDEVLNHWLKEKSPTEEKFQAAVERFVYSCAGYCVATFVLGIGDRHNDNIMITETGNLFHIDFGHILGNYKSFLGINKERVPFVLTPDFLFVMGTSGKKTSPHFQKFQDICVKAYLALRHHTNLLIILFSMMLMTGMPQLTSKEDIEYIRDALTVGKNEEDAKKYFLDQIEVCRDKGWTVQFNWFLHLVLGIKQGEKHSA
T3 sequence (P42338 whole entry, species assumed): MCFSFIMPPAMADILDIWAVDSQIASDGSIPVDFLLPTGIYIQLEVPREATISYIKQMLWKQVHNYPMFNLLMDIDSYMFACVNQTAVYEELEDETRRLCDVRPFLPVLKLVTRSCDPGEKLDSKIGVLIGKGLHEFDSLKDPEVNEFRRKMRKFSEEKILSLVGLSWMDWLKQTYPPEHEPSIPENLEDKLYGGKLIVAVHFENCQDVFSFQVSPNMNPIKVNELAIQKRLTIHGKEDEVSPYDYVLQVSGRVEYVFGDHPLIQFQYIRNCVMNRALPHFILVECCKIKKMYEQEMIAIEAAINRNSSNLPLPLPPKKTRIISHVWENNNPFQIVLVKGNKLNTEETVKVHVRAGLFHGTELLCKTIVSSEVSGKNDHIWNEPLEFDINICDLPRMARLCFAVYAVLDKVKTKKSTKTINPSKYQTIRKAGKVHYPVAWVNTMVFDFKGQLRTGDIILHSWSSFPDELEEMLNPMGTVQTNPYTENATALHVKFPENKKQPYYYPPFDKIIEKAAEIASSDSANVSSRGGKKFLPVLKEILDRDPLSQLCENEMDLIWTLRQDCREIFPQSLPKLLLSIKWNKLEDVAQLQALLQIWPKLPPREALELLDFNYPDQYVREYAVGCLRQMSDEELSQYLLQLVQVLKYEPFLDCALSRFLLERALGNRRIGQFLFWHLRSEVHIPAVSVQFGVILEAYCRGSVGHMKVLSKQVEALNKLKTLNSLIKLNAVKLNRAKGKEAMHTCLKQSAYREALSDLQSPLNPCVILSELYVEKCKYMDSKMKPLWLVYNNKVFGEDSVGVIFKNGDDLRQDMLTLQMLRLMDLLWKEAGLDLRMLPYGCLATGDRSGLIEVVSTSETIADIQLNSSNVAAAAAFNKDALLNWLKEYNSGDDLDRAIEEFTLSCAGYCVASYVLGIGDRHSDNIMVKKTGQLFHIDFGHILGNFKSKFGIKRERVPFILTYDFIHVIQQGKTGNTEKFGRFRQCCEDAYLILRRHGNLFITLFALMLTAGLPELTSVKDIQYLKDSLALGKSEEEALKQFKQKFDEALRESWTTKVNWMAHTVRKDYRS
T3 sequence (P27986 whole entry partner, species assumed): as the sequence (P27986 whole entry partner) above
T4 sequence (P42336 whole entry H1047R): as the sequence (P42336 whole entry) above, with H1047R counted along it
T4 sequence (P27986 whole entry partner): as the sequence (P27986 whole entry partner) above
T7 sequence (P42336 whole entry): as the sequence (P42336 whole entry) above
T7 sequence (P27986 whole entry partner): as the sequence (P27986 whole entry partner) above
Chain of PI3Kα M1043I mutant (P42336 whole entry M1043I): as the sequence (P42336 whole entry) above, with M1043I counted along it
Chain of PI3Kα M1043I mutant (P27986 whole entry partner): as the sequence (P27986 whole entry partner) above

Compound: Nc1ncnc2c1ncn2[C@@H]1O[C@H](COP(=O)(O)OP(=O)(O)NP(=O)(O)O)[C@@H](O)[C@H]1O [AMP-PNP]
effect on P2pY-activated PI3Kα^WT membrane interaction (BLI wavelength shift) (PI3Kα^WT [1]): could promote the enzymes membrane interaction

Compound: O=C1NC(=O)/C(=C/c2ccc(-c3ccc(F)cc3O)o2)S1 [AS252424]
effect on P2pY-activated PI3Kα^WT membrane interaction (BLI wavelength shift) (PI3Kα^WT [1]): some evidence of positive modulation

Compound: Cc1nc(-c2cn3c(n2)-c2ccc(-c4cnn(C(C)(C)C(N)=O)c4)cc2OCC3)n(C(C)C)n1 [GDC0032]
IC50 (p110γ [2]): 4.6 nM and 3.2 nM | IC50 (PI3Kβ^WT (p110β/p85α); Table S1, this study, a = N=2 individual data shown, b = N=1, read-out: IC50 PI3Kβ WT): 64 nM and 113 nM

Compound: COc1ncc(-c2ccc3nccc(-c4ccnnc4)c3c2)cc1NS(=O)(=O)c1ccc(F)cc1F [GSK2126458]
effect on M1043I membrane interaction capacity (BLI) (PI3Kα M1043I mutant): also sensitive to GSK2126458 | effect on G118D membrane interaction (BLI) (PI3Kα G118D mutant): changes in both capacity and affinity | effect on N345K membrane interaction (BLI) (PI3Kα N345K mutant): sensitive to GSK2126458, with effects on the membrane interaction capacity | effect on C420R membrane interaction (BLI) (PI3Kα C420R mutant): sensitive to GSK2126458, with effects on the membrane interaction capacity | effect on G106V membrane interaction capacity (BLI) (PI3Kα G106V mutant): largest decrease in capacity of all those tested | effect on G1049R membrane interaction capacity (BLI) (PI3Kα G1049R mutant): also sensitive to GSK2126458 | maximum reduction in FRET signal (PI3Kα^WT [3]): 85% | Bmax (binding capacity) of PI3Kα^H1047R membrane interaction in presence of inhibitor (PI3Kα^H1047R; liposomes 0% PIP2 + 20% PS): 4.3 ± 0.3 λ nm | Bmax (binding capacity) of PI3Kα^H1047R membrane interaction in presence of inhibitor (PI3Kα^H1047R; liposomes 5% PIP2 + 0% PS): 4.6 ± 0.3 λ nm | Bmax (binding capacity) of PI3Kα^H1047R membrane interaction in presence of inhibitor (PI3Kα^H1047R; liposomes 5% PIP2 + 20% PS): 5.0 ± 0.2 λ nm | Bmax (binding capacity) of PI3Kα^WT membrane interaction in presence of inhibitor (PI3Kα^WT [1]; liposomes 0% PIP2 + 20% PS): 1.5 ± 0.1 λ nm | Bmax (binding capacity) of PI3Kα^WT membrane interaction in presence of inhibitor (PI3Kα^WT [1]; liposomes 5% PIP2 + 20% PS): 1.9 ± 0.1 λ nm | effect on PI3Kβ^WT membrane interaction (BLI) (PI3Kβ^WT): insensitive to GSK2126458 | effect on PI3Kδ^WT membrane interaction (BLI) (PI3Kδ^WT): insensitive to GSK2126458 | effect on PI3Kα^E545K membrane interaction (BLI) (PI3Kα^E545K): insensitive to regulation by GSK2126458

Compound: Cc1ccc([N+](=O)[O-])cc1S(=O)(=O)N(C)/N=C/c1cnc2ccc(Br)cn12 [PIK-75]
IC50 (p110γ [4]): 43 ± 21 nM

Second part, the compound after the results:

maximum reduction in FRET signal (PI3Kα^WT [3]): 50%
Compound: FC(F)c1nc2ccccc2n1-c1nc(N2CCOCC2)nc(N2CCOCC2)n1 [ZSTK474, 2-(difluoromethyl)-1-[4,6-di(4-morpholinyl)-1,3,5-triazin-2-yl]-1H-benzimidazole]

IC50 (PI3Kα^WT (p110α/p85α)): 460 ± 170 nM
Compound: COc1ncc(-c2ccc3cccc(-c4ccnnc4)c3c2)cc1NS(=O)(=O)c1ccc(F)cc1F [compound 6]

IC50 (PI3Kα^WT (p110α/p85α)): 16800 ± 9100 nM | effect on P2pY-activated PI3Kα^WT membrane interaction (BLI wavelength shift) (PI3Kα^WT [1]): retained the ability to decrease | IC50 (PI3Kβ^WT (p110β/p85α); HTRF assay using PIP2 as substrate, Mean ± SD, n=2, enzyme 400 or 300 ng/ml, read-out: IC50 PI3K (second column of Table S3, probably PI3Kβ)): 242000 ± 308000 nM | IC50 (PI3Kδ^WT (p110δ/p85α)): 8600 ± 2100 nM
Compound: COc1ncc(-c2ccc(-c3cnc4c(c3)CN(C)C4=O)s2)cc1NS(=O)(=O)c1ccc(F)cc1F [compound 7]
